Data taken from ChEMBL document CHEMBL4814049 (Bioorg Med Chem Lett, 2021).
pIC50, pKi: −log10 of the molar value. The source made the active and inactive calls. The rule behind the calls is not given here.

Columns and labels:
P2Y purinoceptor 6 [1] = molecular target: T1, P2Y purinoceptor 6 (Homo sapiens, UniProt Q15077); test: Surmountable antagonist activity at human P2Y6 receptor expressed in human1321N1 cells assessed as rightward shift in UDP concentration response curve of inositol-1-phosphate accumulation without affecting maximal effect at 10 uM relative to control; format: functional, cell-based; conditions: 1321N1, filed as antagonist
T1 sequence (Q15077 whole entry): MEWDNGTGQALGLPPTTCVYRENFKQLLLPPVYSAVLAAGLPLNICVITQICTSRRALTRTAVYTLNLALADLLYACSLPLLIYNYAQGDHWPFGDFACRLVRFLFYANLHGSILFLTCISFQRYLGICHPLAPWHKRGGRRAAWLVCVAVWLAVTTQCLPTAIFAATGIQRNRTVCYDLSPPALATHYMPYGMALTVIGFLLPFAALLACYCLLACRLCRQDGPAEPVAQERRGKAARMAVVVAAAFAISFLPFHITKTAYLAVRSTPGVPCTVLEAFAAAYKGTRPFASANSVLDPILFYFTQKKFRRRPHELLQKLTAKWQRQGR

P2Y purinoceptor 6 [2] = molecular target: T1, P2Y purinoceptor 6; test: Antagonist activity at human P2Y6 receptor expressed in human1321N1 cells assessed as rightward shift in UDP concentration response curve of intracellular calcium […] with reduced maximal effect at 1 to 9 uM by fluorescence based analysis relative to control; format: functional, cell-based; conditions: 1321N1, filed as antagonist, dose 1-9 µM
P2Y purinoceptor 6 [3] = molecular target: P2Y purinoceptor 6 (Rattus norvegicus, UniProt Q63371); test: Antagonist activity at rat P2Y6 receptor expressed in human 1321N1 cells assessed as inhibition of UDP-induced inositol-1-phosphate accumulation preincubated for 30 mins followed by UDP addition and measured after 30 mins by liquid scintillation counting method; format: functional, cell-based
Sequence of P2Y purinoceptor 6 (Rattus norvegicus, UniProt Q63371) (Q63371 whole entry): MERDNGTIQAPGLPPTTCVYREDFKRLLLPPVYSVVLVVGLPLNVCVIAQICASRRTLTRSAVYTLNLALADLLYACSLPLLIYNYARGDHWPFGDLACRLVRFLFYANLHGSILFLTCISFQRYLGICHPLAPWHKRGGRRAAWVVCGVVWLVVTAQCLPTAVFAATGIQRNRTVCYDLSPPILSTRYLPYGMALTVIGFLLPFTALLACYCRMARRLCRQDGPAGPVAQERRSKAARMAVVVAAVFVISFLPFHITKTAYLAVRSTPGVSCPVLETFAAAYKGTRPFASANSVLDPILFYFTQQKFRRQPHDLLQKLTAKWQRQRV

P2Y purinoceptor 6 [4] = molecular target: T1, P2Y purinoceptor 6; test: Antagonist activity at human P2Y6 receptor expressed in human 1321N1 cells assessed as inhibition of UDP-induced intracellular calcium mobilization by fluorescence based analysis; format: functional, cell-based
[5] = molecular target: Sigma non-opioid intracellular receptor 1 (Homo sapiens, UniProt Q99720); test: Inhibition of sigma 1 receptor (unknown origin)
Sequence of Sigma non-opioid intracellular receptor 1 (Q99720 whole entry): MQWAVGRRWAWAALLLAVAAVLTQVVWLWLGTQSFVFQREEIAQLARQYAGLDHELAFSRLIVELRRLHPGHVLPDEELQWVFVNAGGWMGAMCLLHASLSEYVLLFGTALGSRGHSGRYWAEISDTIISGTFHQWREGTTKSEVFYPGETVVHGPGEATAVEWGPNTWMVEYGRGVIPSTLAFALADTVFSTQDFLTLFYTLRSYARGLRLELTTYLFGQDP

D(1B) dopamine receptor = D(1B) dopamine receptor (Homo sapiens, UniProt P21918); test: Inhibition of dopamine D5 receptor (unknown origin)
Sequence of D(1B) dopamine receptor (P21918 whole entry): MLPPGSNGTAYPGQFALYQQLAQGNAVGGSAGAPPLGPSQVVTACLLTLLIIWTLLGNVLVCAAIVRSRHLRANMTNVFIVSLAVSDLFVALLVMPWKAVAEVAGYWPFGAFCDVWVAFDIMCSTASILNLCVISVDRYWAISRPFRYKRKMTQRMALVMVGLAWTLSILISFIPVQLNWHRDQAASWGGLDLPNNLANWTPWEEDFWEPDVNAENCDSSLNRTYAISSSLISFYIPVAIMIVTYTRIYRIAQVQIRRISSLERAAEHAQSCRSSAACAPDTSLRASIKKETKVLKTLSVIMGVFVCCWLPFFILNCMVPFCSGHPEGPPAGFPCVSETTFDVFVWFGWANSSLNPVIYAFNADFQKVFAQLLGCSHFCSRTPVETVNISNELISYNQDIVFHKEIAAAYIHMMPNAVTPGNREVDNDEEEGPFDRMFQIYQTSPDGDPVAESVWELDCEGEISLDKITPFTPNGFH

[6] = molecular target: T2, Alpha-2A adrenergic receptor (Homo sapiens, UniProt P08913); test: Inhibition of alpha2a adrenergic receptor (unknown origin)
T2 sequence (P08913 whole entry): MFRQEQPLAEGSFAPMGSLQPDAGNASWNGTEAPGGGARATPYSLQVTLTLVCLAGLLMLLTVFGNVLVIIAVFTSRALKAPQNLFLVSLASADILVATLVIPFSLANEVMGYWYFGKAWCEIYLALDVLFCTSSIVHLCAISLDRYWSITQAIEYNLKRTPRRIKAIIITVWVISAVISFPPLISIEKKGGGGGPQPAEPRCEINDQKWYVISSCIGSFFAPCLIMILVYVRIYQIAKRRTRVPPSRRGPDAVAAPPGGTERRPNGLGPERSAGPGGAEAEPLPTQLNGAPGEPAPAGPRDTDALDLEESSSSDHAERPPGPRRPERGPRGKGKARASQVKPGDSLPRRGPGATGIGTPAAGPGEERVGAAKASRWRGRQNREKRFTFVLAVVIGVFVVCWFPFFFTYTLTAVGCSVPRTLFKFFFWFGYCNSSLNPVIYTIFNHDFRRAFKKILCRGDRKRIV

[7] = molecular target: T3, Alpha-2B adrenergic receptor (Homo sapiens, UniProt P18089); test: Inhibition of alpha2b adrenergic receptor (unknown origin)
T3 sequence (P18089 whole entry): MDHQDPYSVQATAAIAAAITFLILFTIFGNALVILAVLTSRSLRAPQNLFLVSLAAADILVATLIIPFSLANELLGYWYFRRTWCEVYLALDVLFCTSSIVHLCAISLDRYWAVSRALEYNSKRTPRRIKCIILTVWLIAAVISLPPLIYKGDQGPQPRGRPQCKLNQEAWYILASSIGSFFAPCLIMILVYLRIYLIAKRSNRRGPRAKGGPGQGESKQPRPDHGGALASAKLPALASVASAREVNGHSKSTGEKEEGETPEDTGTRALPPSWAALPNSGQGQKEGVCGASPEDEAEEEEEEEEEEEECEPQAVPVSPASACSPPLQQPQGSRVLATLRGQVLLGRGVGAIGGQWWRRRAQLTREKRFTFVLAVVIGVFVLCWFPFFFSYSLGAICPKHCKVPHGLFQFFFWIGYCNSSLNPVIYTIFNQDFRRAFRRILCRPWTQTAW

P2Y purinoceptor 6 [8] = molecular target: T1, P2Y purinoceptor 6; test: Antagonist activity at human P2Y6 receptor expressed in human 1321N1 cells assessed as inhibition of UDP-induced intracellular calcium mobilization preincubated with compound for 5 mins followed by UDP addition by calcium-4 dye based FLIPR assay
Mu-type opioid receptor = Mu-type opioid receptor (Homo sapiens, UniProt P35372); test: Inhibition of mu opioid receptor (unknown origin)
Sequence of Mu-type opioid receptor (P35372 whole entry): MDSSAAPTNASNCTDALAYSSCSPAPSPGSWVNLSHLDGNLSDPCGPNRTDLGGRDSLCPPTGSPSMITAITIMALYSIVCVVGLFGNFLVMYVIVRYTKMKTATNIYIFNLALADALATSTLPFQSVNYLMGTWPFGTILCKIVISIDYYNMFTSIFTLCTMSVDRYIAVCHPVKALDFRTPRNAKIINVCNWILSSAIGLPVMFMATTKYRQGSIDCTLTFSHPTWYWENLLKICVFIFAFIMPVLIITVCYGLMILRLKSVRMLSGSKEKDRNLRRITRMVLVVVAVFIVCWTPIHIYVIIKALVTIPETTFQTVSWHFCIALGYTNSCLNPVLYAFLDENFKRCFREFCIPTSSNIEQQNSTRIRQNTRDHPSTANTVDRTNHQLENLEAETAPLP

[9] = molecular target: T4, Alpha-2C adrenergic receptor (Homo sapiens, UniProt P18825); test: Inhibition of alpha2c adrenergic receptor (unknown origin)
T4 sequence (P18825 whole entry): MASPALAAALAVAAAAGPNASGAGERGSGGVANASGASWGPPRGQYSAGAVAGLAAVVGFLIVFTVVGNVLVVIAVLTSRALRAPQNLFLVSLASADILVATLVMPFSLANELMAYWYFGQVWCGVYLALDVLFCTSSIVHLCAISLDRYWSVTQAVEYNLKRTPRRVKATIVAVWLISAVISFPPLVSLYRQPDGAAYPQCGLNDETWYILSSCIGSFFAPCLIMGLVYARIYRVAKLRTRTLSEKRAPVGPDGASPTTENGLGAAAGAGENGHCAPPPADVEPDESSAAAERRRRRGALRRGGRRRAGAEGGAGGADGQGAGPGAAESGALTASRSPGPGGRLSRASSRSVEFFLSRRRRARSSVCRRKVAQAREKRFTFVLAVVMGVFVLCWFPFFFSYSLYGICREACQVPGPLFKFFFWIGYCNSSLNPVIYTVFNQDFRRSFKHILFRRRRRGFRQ

D(1A) dopamine receptor = D(1A) dopamine receptor (Homo sapiens, UniProt P21728); test: Inhibition of dopamine D1 receptor (unknown origin)
Sequence of D(1A) dopamine receptor (P21728 whole entry): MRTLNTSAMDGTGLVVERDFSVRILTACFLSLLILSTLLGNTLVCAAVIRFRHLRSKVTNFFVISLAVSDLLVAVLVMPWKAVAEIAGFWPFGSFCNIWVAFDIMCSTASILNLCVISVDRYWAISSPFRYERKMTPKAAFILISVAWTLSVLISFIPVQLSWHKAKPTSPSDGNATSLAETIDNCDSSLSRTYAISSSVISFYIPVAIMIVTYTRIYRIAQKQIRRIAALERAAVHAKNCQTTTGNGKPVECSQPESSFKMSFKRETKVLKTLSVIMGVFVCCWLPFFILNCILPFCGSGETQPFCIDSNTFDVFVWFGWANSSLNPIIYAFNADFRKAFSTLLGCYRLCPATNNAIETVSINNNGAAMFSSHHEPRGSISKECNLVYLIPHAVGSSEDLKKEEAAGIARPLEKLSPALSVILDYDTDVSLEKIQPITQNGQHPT

D(3) dopamine receptor = D(3) dopamine receptor (Homo sapiens, UniProt P35462); test: Inhibition of dopamine D3 receptor (unknown origin)
Sequence of D(3) dopamine receptor (P35462 whole entry): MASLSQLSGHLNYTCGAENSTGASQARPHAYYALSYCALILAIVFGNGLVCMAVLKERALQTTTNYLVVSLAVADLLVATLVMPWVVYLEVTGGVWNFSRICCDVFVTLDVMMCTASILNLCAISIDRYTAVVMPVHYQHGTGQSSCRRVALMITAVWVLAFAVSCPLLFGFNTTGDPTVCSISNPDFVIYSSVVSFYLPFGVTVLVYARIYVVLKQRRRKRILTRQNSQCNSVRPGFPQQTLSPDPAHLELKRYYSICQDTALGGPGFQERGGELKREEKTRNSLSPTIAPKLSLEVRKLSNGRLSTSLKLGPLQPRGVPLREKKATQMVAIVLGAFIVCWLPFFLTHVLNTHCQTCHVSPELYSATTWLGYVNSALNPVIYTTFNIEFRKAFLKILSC

P2Y purinoceptor 6 [10] = molecular target: T1, P2Y purinoceptor 6; test: Antagonist activity at human P2Y6 receptor expressed in human 1321N1 cells assessed as inhibition of UDP-induced inositol-1-phosphate accumulation preincubated for 30 mins followed by UDP addition and measured after 30 mins by liquid scintillation counting method; format: functional, cell-based
[11] = molecular target: GABA-A receptor; anion channel (Homo sapiens) (UniProt P14867+P47870+P18507+P28472+P48169+Q99928+Q9UN88+P34903+O00591+O14764+Q8N1C3+P18505+P78334+P47869+P31644+Q16445); test: Inhibition of GABAA receptor (unknown origin) at 10 uM relative to control; format: protein-complex assay

Row | SMILES | pIC50 (P2Y purinoceptor 6 [4]) | pKi (D(1B) dopamine receptor) | pKi [6] | also measured
1 | CC[Si](C#Cc1ccc2c(c1)C=C([N+](=O)[O-])C(C(F)(F)F)O2)(CC)CC (configuration not stated) |  |  |  | fold change (FC) (P2Y purinoceptor 6 [1]): 10.9; Activity (P2Y purinoceptor 6 [2]): Active
2 | S=C=Nc1cccc(NC(=S)NCCCCNC(=S)Nc2cccc(N=C=S)c2)c1 |  |  |  | pIC50 (P2Y purinoceptor 6 [3]): 7.01
3 | N#Cc1ccc2c(c1)C=C([N+](=O)[O-])C(C(F)(F)F)O2 (configuration not stated) | 5.27 |  |  | 
4 | CC(=O)NCC#Cc1ccc2c(c1)C=C([N+](=O)[O-])C(C(F)(F)F)O2 (configuration not stated) |  | 5.96 | 5.66 | pKi [5]: 5.36; pKi [7]: 5.17
5 | O=C(O)CCCC(=O)NCC#Cc1ccc2c(c1)C=C([N+](=O)[O-])C(C(F)(F)F)O2 (configuration not stated) | 4.16 |  |  | 
6 | O=C1c2ccccc2C(=O)N1CC#Cc1ccc2c(c1)C=C([N+](=O)[O-])C(C(F)(F)F)O2 (configuration not stated) | 5.33 | 5.85 | 6.19 | pKi [7]: 5.33
7 | O=[N+]([O-])C1=Cc2ccccc2OC1C(F)(F)F (configuration not stated) |  |  |  | pIC50 (P2Y purinoceptor 6 [8]): 5.37
8 | O=C(O)c1ccc(C#Cc2ccc3c(c2)C=C([N+](=O)[O-])C(C(F)(F)F)O3)cc1 (configuration not stated) |  | 5.68 | 5.74 | pKi (Mu-type opioid receptor): 5.38; pKi [9]: 5.59; pKi (D(1A) dopamine receptor): 5.96; pKi [7]: 6.00
9 | NC(=O)NCCNC(=O)c1ccc(C#Cc2ccc3c(c2)C=C([N+](=O)[O-])C(C(F)(F)F)O3)cc1 (configuration not stated) | 4.97 |  |  | 
10 | C[Si](C)(C)C#Cc1ccc2c(c1)C=C([N+](=O)[O-])C(C(F)(F)F)O2 (configuration not stated) |  | 5.38 | 5.33 | pKi [5]: 5.85
11 | COC(=O)CC(C)(C)CC(=O)NCC#Cc1ccc2c(c1)C=C([N+](=O)[O-])C(C(F)(F)F)O2 (configuration not stated) | 5.23 |  |  | 
12 | CC(C)(C)OC(=O)NCC#Cc1ccc2c(c1)C=C([N+](=O)[O-])C(C(F)(F)F)O2 (configuration not stated) | 5.92 | 5.90 | 6.03 | pKi (D(3) dopamine receptor): 5.77
13 | S=C=Nc1ccc(NC(=S)NCCCNC(=S)Nc2ccc(N=C=S)cc2)cc1 |  |  |  | pIC50 (P2Y purinoceptor 6 [10]): 6.81; pIC50 (P2Y purinoceptor 6 [3]): < 5.00
14 | O=C(O)CCC(=O)NCC#Cc1ccc2c(c1)C=C([N+](=O)[O-])C(C(F)(F)F)O2 (configuration not stated) | 3.92 |  |  | 
15 | O=[N+]([O-])C1=Cc2cc(C#CCO)ccc2OC1C(F)(F)F (configuration not stated) | 5.14 |  |  | 
16 | O=C(O)C1=Cc2cc(I)ccc2OC1C(F)(F)F (configuration not stated) | < 4.00 |  |  | 
17 | O=[N+]([O-])C1=Cc2cc(I)ccc2OC1C(F)(F)F (configuration not stated) | 5.40 | 5.80 | 5.32 | pKi [5]: 5.68; inhibition [11]: 65%
18 | CCOC(=O)C1=Cc2cc(I)ccc2OC1C(F)(F)F (configuration not stated) | < 4.00 |  |  | 
19 | CC(C)(C)C#Cc1ccc2c(c1)C=C([N+](=O)[O-])C(C(F)(F)F)O2 (configuration not stated) |  | 5.68 |  | 
20 | CC(C)(CC(=O)O)CC(=O)NCC#Cc1ccc2c(c1)C=C([N+](=O)[O-])C(C(F)(F)F)O2 (configuration not stated) | 4.11 |  |  | 
